Measurements from patent US20020128231A1 (priority 2000, published 2002).

Legend:
[1] = test system: MDR1-expressing NIH 3T3 cells; experiment: Cytotoxicity (MTT) assay: modulation of drug cytotoxicity in multidrug resistant cells; settings: for Modulation of Drug Resistance (percentage increase in doxorubicin cytotoxicity in the presence of the compounds versus in their absence): compound 5 μM, 50 nM doxorubicin, 72 hours, MTT
Experimental: Cytotoxicity assays were performed with many of the compounds of Formula I to verify their usefulness as inhibitors of P-gp.
Parental NIH3T3 Swiss mouse embryo cell line was obtained from American Type Culture Collection and was grown in Dulbecco's Modified Eagles Medium supplemented with 4.5 g/L glucose, 10% fetal bovine serum, 2 mM L-glutamine, and 0.01 mg/ml gentamicin. […] All cells were maintained in a humidified atmosphere with 5% CO2 at 37° C.
Parental and MDR1-expressing NIH 3T3 cells were plated at a density of 2.5-3.0×10^3 cells/well in 96-well microtiter plates and were exposed to 50 nM of doxoriubicin, 7.5 nM vinblastine, 75 nM colchicine or 300 nM paclitaxel for 72 hours. Cell viability was determined with the colorimetric MTT (3-(4,5-dimethylthiazol-2-yl)-2,5-diphenyl tetrazolium) assay as previously described (Mosmann T., J. Immunol. Methods, 65: 55-63 (1983); Hansen M. B. et al., J. Immunol. Methods, 119: 203-210 (1989)) and the absorbance was measured at 570 nm.

P-glycoprotein = P-glycoprotein (Homo sapiens, UniProt P08183); experiment: Rhodamine 123 transport assay across HCT-8 cell monolayers; settings: compound 10 μM, Rh123 15 μM, HCT-8 cells; for inhibition at 10 μM: human, HCT-8 cell monolayers in Transwell dishes, probe Rhodamine 123 (15 μM), % Inhibition of R123 Transport
P-glycoprotein, sequence (P08183 whole entry): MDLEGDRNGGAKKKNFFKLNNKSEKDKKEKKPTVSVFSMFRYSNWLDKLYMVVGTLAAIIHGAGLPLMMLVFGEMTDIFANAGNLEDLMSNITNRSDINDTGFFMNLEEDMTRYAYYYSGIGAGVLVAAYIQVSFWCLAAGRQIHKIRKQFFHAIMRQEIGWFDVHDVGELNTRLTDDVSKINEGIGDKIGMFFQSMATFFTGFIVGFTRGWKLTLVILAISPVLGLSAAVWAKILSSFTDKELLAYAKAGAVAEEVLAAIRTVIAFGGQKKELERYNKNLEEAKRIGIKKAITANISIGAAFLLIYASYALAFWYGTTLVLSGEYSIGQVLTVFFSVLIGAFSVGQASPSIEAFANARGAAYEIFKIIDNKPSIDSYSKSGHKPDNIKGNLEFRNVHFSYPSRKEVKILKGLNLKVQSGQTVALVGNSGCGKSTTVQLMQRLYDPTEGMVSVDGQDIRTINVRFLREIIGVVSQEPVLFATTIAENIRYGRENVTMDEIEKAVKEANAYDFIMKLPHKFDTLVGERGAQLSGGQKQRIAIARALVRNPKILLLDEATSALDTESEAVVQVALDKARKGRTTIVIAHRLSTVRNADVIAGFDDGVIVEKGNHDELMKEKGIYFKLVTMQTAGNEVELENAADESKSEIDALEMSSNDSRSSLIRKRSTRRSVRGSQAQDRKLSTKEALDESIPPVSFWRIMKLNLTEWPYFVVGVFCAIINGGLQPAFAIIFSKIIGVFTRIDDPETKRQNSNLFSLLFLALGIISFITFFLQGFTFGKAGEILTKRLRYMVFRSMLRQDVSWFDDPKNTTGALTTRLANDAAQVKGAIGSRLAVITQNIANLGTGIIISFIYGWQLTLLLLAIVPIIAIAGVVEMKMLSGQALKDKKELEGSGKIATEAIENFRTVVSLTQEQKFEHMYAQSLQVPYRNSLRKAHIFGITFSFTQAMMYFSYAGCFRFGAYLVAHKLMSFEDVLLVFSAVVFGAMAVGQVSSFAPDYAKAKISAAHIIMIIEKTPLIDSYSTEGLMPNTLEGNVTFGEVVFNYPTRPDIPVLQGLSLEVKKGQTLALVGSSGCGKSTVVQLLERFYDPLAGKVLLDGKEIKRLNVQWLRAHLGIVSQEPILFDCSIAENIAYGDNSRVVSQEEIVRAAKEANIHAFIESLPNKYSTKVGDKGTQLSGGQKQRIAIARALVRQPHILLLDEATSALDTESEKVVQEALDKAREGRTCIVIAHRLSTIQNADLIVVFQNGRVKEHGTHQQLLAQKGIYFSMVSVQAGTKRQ
Experimental: The human ileocecal adenocarcinoma cell line HCT-8 was grown in RPMI-1640 medium supplemented with 10% horse serum, 1 mM sodium pyruvate and 0.01 mg/ml gentamicin. All cells were maintained in a humidified atmosphere with 5% CO2 at 37° C.
Rhodamine 123 transport was examined as previously described (Hunter J. et al., Simmons, Br. J. Cancer, 64: 437444 (1991); Kim A. E. et al., J. Pharm. Exp. Ther., 286: 1439-1445 (1998)) using HCT-8 cells. Particularly, cells were grown in 6 well Corning Transwell dishes until a tight monolayer was formed. Rh123 was added at a final concentration of 15 μM to the basal or apical compartments and 200 μl samples were taken at the indicated times from the opposite chamber. Fluorescence of Rh123 in the media samples was measured using a fluorescence plate reader with an excitation wavelength of 485 nm and an emission wavelength of 530 nm.

Row | Molecule | % Inhibition of R123 Transport (P-glycoprotein) [%] | inhibition at 10 μM (P-glycoprotein) [%] | Modulation of Drug Resistance (percentage increase in doxorubicin cytotoxicity in the presence of the compounds versus in their absence) [1] [%] | dose responsive sensitization of multidrug resistant cells to doxorubicin (FIG. 5) ([1]; doxorubicin 0-750 nM, compound 50-1000 nM) | dose response inhibition of P-glycoprotein in the presence of vinblastine (FIG. 6) ([1]; vinblastine 0-100 nM, compound 50-1000 nM)
1 | COc1ccc(C2c3cc(OC)c(OC)cc3C(CC(=O)N3CCN(c4ccccc4OC)CC3)C2C(=O)N2CCN(c3ccccc3OC)CC2)cc1OC (centres unmarked) [AV-188, 2-{3-(3,4-dimethoxyphenyl)-5,6-dimethoxy-2-[4-(2-methoxyphenyl)-piperazin-1-carbonyl]-indan-1-yl}-1-[4-(2-methoxy-phenyl)-1-yl]-ethanone] | 87.6 |  | 75.39 |  | 
2 | 2-{3-(3,4-dimethoxyphenyl)-5,6-dimethoxy-2-[4-(4-nitrophenyl)-piperazin-1-carbonyl]-indan-1-yl}-1-[4-(4-nitrophenyl)-1-yl]-ethanone [AV-196] | 64.4 |  | 41.47 |  | 
3 | CCOc1ccccc1N1CCN(C(=O)CC2c3cc(OC)c(OC)cc3C(c3ccc(OC)c(OC)c3)C2C(=O)N2CCN(c3ccccc3OCC)CC2)CC1 (centres unmarked) [AV-171, 2-{3-(3,4-dimethoxyphenyl)-5,6-dimethoxy-2-[4-(2-ethoxyphenyl)-piperazin-1-carbonyl]-indan-1-yl}-1-[4-(2-ethoxyphenyl)-1-yl]-ethanone] | 92.9 |  | 66.11 |  | 
4 | CCCCOc1ccc(C2c3cc(OCCCC)c(OCCCC)cc3C(CC(=O)N3CCN(c4ccccc4OCC)CC3)C2C(=O)N2CCN(c3ccccc3OCC)CC2)cc1OCCCC (centres unmarked) [AV-255, 2-{3-(3,4-Dibutoxy-phenyl)-2-[4-(2-ethoxy-phenyl)-piperazine-1-carbonyl]-5,6-dibutoxy-indan-1-yl}-1-[4-(2-ethoxy-phenyl)-piperazin-1-yl]-ethanone] |  | 96 | 6.7 |  | 
5 | CCCCOc1ccc(C2c3cc(OCCCC)c(OC)cc3C(CC(=O)N3CCN(c4ccccc4OCC)CC3)C2C(=O)N2CCN(c3ccccc3OCC)CC2)cc1OC (centres unmarked) [AV-208, 2-{5-butoxy-3-(4-butoxy-3-methoxyphenyl)-2-[4-(2-ethoxyphenyl)-piperazine-1-carbonyl]-6-methoxy-indan-1-yl}-1-[4-(2-ethoxyphenyl)-piperazin-1-yl]-ethanone] |  | 86.1 | 51.78 |  | 
6 | CCCOc1ccc(C2c3cc(OCCC)c(OC)cc3C(CC(=O)N3CCN(c4ccccc4OCC)CC3)C2C(=O)N2CCN(c3ccccc3OCC)CC2)cc1OC (single isomer, unassigned) [AV-239-1] | 90.10 |  | 55.3 |  | 
7 | COCC1C(CCN2CCN(c3ccccc3OC)CC2)c2cc(OC)c(OC)cc2C1c1ccc(OC)c(OC)c1 (centres unmarked) [AV-202, 1{-2-[3-(3,4-dimethoxyphenyl)-5,6-dimethoxy-2-methoxymethyl-indan-1-yl]-ethyl}-4-(2-methoxyphenyl)-piperazine] |  | 88.4 | 59.68 | dose responsive sensitization | dose response data inhibition of P-glycoprotein
8 | CCCOc1ccc(C2c3cc(OCCC)c(OC)cc3C(CC(=O)N3CCN(c4ccccc4OCC)CC3)C2C(=O)N2CCN(c3ccccc3OCC)CC2)cc1OC (single isomer, unassigned) [AV-239-2] | 91.38 |  | 60 |  | 
9 | CCOc1ccccc1N1CCN(C(=O)CC2c3cc(OC)c(O)cc3C(c3ccc(O)c(OC)c3)C2C(=O)N2CCN(c3ccccc3OCC)CC2)CC1 (centres unmarked) [AV-206, 2-[2-[4-(2-ethoxyphenyl)-piperazine-1-carbonyl]-5-hydroxy-3-(4-hydroxy-3-methoxyphenyl)-6-methoxy-indan-1-yl]-1-[4(2-ethoxyphenyl)-piperazin-1-yl]-ethanone] |  | 88.2 | 54.78 |  | 
10 | COc1ccc(N2CCN(C(=O)CC3c4cc(OC)c(OC)cc4C(c4ccc(OC)c(OC)c4)C3C(=O)N3CCN(c4ccc(OC)cc4)CC3)CC2)cc1 (centres unmarked) [AV-168, 2-{3-(3,4-dimethoxyphenyl)-5,6-dimethoxy-2-[4-(4-methoxyphenyl)-piperazin-1-carbonyl]-indan-1-yl}-1-[4-(4-methoxyphenyl)-1-yl]-ethanone] | 81.5 |  | 73.81 |  | 
11 | COCC1C(CCN2CCN(CC=Cc3ccccc3)CC2)c2cc(OC)c(OC)cc2C1c1ccc(OC)c(OC)c1 (centres unmarked) [AV-204, 1-{2-[3-(3,4-dimethoxyphenyl)-5,6-dimethoxy-2-methoxymethyl-indan-1-yl]-ethyl}-4-(3-phenylallyl)-piperazine] |  |  | 64.60 |  | 

Now from value to molecule, other results behind:

Row | % Inhibition of R123 Transport (P-glycoprotein) [%] | inhibition at 10 μM (P-glycoprotein) [%] | Molecule | Modulation of Drug Resistance (percentage increase in doxorubicin cytotoxicity in the presence of the compounds versus in their absence) [1] [%] | dose responsive sensitization of multidrug resistant cells to doxorubicin (FIG. 5) ([1]; doxorubicin 0-750 nM, compound 50-1000 nM) | dose response inhibition of P-glycoprotein in the presence of vinblastine (FIG. 6) ([1]; vinblastine 0-100 nM, compound 50-1000 nM)
12 |  | 89.7 | COc1ccc(C2c3cc(OC)c(OC)cc3C(CC(=O)N3CCN(c4ccc(C(C)=O)cc4)CC3)C2C(=O)N2CCN(c3ccc(C(C)=O)cc3)CC2)cc1OC (centres unmarked) [AV-163, 2-[2-[4-(4-acetylphenyl)-piperazin-1-carbonyl]-3-(3,4-dimethoxyphenyl)-5,6-dimethoxy-indan-1-yl]-1[4-(4-acetylphenyl)piperazine-1-yl]-ethanone] | 72.55 |  | 
13 |  | 64.1 | COc1ccc(C2c3cc(OC)c(OC)cc3C(CC(=O)N3CCN(c4ccccc4)CC3)C2C(=O)N2CCN(c3ccccc3)CC2)cc1OC (centres unmarked) [AV-161, 2-[3-(3,4-dimethoxyphenyl)-5,6-dimethoxy-2-(4-phenylpiperazin-1-carbonyl)-indan-1-yl]-1-(4-phenylpiperazin-1-yl)-ethanone] | 75.91 |  | 
14 |  | 60 | CCCN(CCC)C(=O)CC1c2cc(OC)c(OC)cc2C(c2ccc(OC)c(OC)c2)C1C(=O)N(CCC)CCC (centres unmarked) [AV-189, 1-(3,4-dimethoxyphenyl)-3-dipropylcarbamoylmethyl-5,6-dimethoxy-indan-2-carboxylic acid dipropyl amide] | 64.78 |  | 
15 |  | 25.1 | COc1ccc(C2c3cc(OC)c(OC)cc3C(CC(=O)N3CCNCC3)C2C(=O)N2CCNCC2)cc1OC (centres unmarked) [AV-185, 2-[3-(3,4-dimethoxyphenyl)-5,6-dimethoxy-2-(piperazine-1-carbonyl)-indan-1-yl]-1-piperazin-1-yl-ethanone] | 18.48 |  | 
16 | 75.61 |  | CCOc1ccccc1N1CCN(C(=O)CC2c3cc(OC)c(OC)cc3C(c3ccc(OC)c(OC)c3)C2C(=O)N2CCN(C)CC2)CC1 (centres unmarked) [AV-256] | 8.7 |  | 
17 |  | 86.4 | COCC1C(CCN2CCN(C(=O)OCc3ccccc3)CC2)c2cc(OC)c(OC)cc2C1c1ccc(OC)c(OC)c1 (centres unmarked) [AV-200, 4-{2-[3-(3,4-dimethoxyphenyl)-5,6-dimethoxy-2-methoxymethyl-indan-1-yl]-ethyl}-piperazine-1-carboxylic acid benzyl ester] | 61.40 |  | 
